In patent US7595401B2, “Therapeutic compounds and their use in cancer” (Myriad Pharmaceuticals, Inc., priority 2006, dated 2009):

system: purified human Hsp90; assay: Binding Assay: fluorescence polarization with BODIPY-labeled geldanamycin; details: 5 μM compound, BODIPY-GM 10 nM, Hsp90 30 nM
In short: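 Compounds in 2% DMSO final compete with 10 nM BODIPY-GM for 30 nM purified human Hsp90, incubated overnight at room temperature in pH 7.3 HEPES buffer containing Na2MoO4 and DTT. Polarization (mP, ex/em 485/530) normalized to DMSO gives percent inhibition; autofluorescence-confounded data excluded.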

Row | Compound | % Inhibition at 5 μM Compound Concentration [%]
1 | Nc1ncnc2c1nc(Sc1cc3c(cc1Br)OCO3)n2CCc1cccc(C(F)(F)F)c1 [Example 165, 8-(6-Bromo-benzo[1,3]dioxol-5-ylsulfanyl)-9-[2-(3-trifluoromethyl-phenyl)-ethyl]-9H-purin-6-ylamine] | 60
2 | COc1ccc(CN2CCC(CCn3cnc(N)c4nc(Sc5cc6c(cc5Br)OCO6)nc3-4)CC2)cc1 [Example 595, 8-[(6-Bromo-1,3-benzodioxol-5-yl)thio]-3-{2-[1-(4-methoxybenzyl)piperidin-4-yl]ethyl}-3 H-purin-6-amine] | 43.00
3 | CCNC(=O)N1CCCC(CCn2cnc(N)c3nc(Sc4cc5c(cc4Br)OCO5)nc2-3)C1 (stereo not shown) [Example 440, 3-(2-{6-Amino-8-[(6-bromo-1,3-benzodioxol-5-yl)thio]-3H-purin-3-yl}ethyl)-N-ethylpiperidine-1-carboxamide] | 60
4 | CC(C)(C)OC(=O)NC(CCn1cnc(N)c2nc(Sc3cc4c(cc3Br)OCO4)nc1-2)C1CCC1 (stereo not shown) [Example 673, tert-Butyl(3-{6-amino-8-[(6-bromo-1,3-benzodioxol-5-yl)thio]-3H-purin-3-yl}-1-cyclobutylpropyl)carbamate] | 0
5 | CC12CCC(CC(CCn3cnc(N)c4nc(Sc5cc6c(cc5Br)OCO6)nc3-4)C1)O2 (stereo not shown) [Example 608, 8-[(6-Bromo-1,3-benzodioxol-5-yl)thio]-3-{2-[1-methyl-8-oxabicyclo[3.2.1]oct-3-yl]ethyl}-3 H-purin-6-amine] | 5.00
6 | COc1ccc(OC)c(Sc2nc3c(N)ncn(CCn4cccc4)c-3n2)c1 [Example 66, 8-(2,5-dimethoxy-phenylsulfanyl)-3-(2-pyrrol-1-yl-ethyl)-3H-purin-6-ylamine] | 5
7 | CC(C)(C)OC(=O)N1CCCC[C@H]1CCn1cnc(N)c2nc(Sc3cc4c(cc3Br)OCO4)nc1-2 [Example 417, tert-Butyl (2S)-2-(2-{6-amino-8-[(6-bromo-1,3-benzodioxol-5-yl)thio]-3H-purin-3-yl}ethyl)piperidine-1-carboxylate] | 0
8 | COc1ccc(OC)c(Sc2nc3c(N)ncn(CCc4ccc(C(=O)O)cc4)c-3n2)c1 [Example 82, 4-{2-[6-Amino-8-(2,5-dimethoxy-phenylsulfanyl)-purin-3-yl]-ethyl}-benzoic acid] | 5
9 | CC(C)(C)OC(=O)N1CC[C@H](CCn2cnc(N)c3nc(Sc4cc5c(cc4Br)OCO5)nc2-3)C1 [Example 420, tert-Butyl (3S)-3-(2-{6-amino-8-[(6-bromo-1,3-benzodioxol-5-yl)thio]-3 H-purin-3-yl}ethyl)pyrrolidine-1-carboxylate] | 7
10 | COc1cc(CCn2c(Sc3cc4c(cc3Br)OCO4)nc3c(N)ncnc32)cc(OC)c1 [Example 195, 8-(6-Bromo-benzo[1,3]dioxol-5-ylsulfanyl)-9-[2-(3,5-dimethoxy-phenyl)-ethyl]-9H-purin-6-ylamine] | 80
11 | COc1ccc(OC)c(Sc2nc3c(N)ncn(CCN4CCOCC4)c-3n2)c1 [Example 636, 8-[(2,5-Dimethoxyphenyl)thio]-3-(2-morpholin-4-ylethyl)-3 H-purin-6-amine] | 25.00
12 | Nc1ncn(CCC2CCCN2C(=O)OCc2ccccc2)c2nc(Sc3cc4c(cc3Br)OCO4)nc1-2 (stereo not shown) [Example 421, Benzyl 2-(2-{6-amino-8-[(6-bromo-1,3-benzodioxol-5-yl)thio]-3H-purin-3-yl}ethyl)pyrrolidine-1-carboxylate] | 28
13 | CC(C)(C)OC(=O)Nc1ccc(CCn2cnc(N)c3nc(Sc4cc5c(cc4Br)OCO5)nc2-3)cc1 [Example 212, (4-{2-[6-amino-8-(6-bromo-benzo[1,3]dioxol-5-ylsulfanyl)-purin-3-yl]-ethyl}-phenyl)carbamic acid tert-butyl ester] | 4
14 | COc1ccc(OC)c(Sc2nc3c(N)ncn(CC(c4ccccc4)C4CCCCC4)c-3n2)c1 (stereo not shown) [Example 180, 3-(2-cyclohexyl-2-phenyl-ethyl)-8-(2,5-dimethoxy-phenylsulfanyl)-3H-purin-6-ylamine] | >10
15 | Nc1ncn(CCc2ccccc2Br)c2nc(Sc3cc4c(cc3Br)OCO4)nc1-2 [Example 150, 8-(6-bromo-benzo[1,3]dioxol-5-ylsulfanyl)-3-[2-(2-bromo-phenyl)-ethyl]-3H-purin-6-ylamine] | 0
16 | COc1ccc(OC)c(Sc2nc3c(N)ncn(CCc4c(C)cc(C)cc4C)c-3n2)c1 [Example 56, 8-(2,5-dimethoxy-phenylsulfanyl)-3-[2-(2,4,6-trimethyl-phenyl)-ethyl]-3H-purin-6-ylamine] | 3
17 | CC(C)(C)OC(=O)NC(CCn1cnc(N)c2nc(Sc3cc4c(cc3Br)OCO4)nc1-2)C1CCOCC1 (stereo not shown) [Example 683, [3-[6-Amino-8-(6-bromo-benzo[1,3]dioxol-5-ylsulfanyl)-9H-purin-3-yl]-1-(tetrahydro-pyran-4-yl)-propyl]-carbamic acid tert-butyl ester] | 5
18 | Nc1ncn(CCc2cccnc2)c2nc(Sc3cc4c(cc3Br)OCO4)nc1-2 [Example 152, 8-(6-bromo-benzo[1,3]dioxol-5-ylsulfanyl)-3-(2-pyridin-3-yl-ethyl)-3H-purin-6-ylamine] | 20
19 | COc1ccc(OC)c(Sc2nc3c(N)ncn(CCc4cccc(I)c4)c-3n2)c1 [Example 138, 8-(2,5-dimethoxy-phenylsulfanyl)-3-[2-(3-iodo-phenyl)-ethyl]-3H-purin-6-ylamine] | 0

same assay, conditions: BODIPY-GM 10 nM, Hsp90 30 nM

Row | Compound | IC50 [nM]
20 | Nc1ncnc2c1nc(Sc1cc3c(cc1Br)OCO3)n2CCc1cccc(C(F)(F)F)c1 [Example 165, 8-(6-Bromo-benzo[1,3]dioxol-5-ylsulfanyl)-9-[2-(3-trifluoromethyl-phenyl)-ethyl]-9H-purin-6-ylamine] | 300
21 | COc1ccc(OC)c(Sc2nc3c(N)ncnc3n2CCC(NS(C)(=O)=O)C2CC2)c1 (stereo not shown) [Example 676, N-(3-{6-Amino-8-[(2,5-dimethoxyphenyl)thio]-9H-purin-9-yl}-1-cyclopropylpropyl)methanesulfonamide] | 950
22 | CC(C)(C)OC(=O)NC(CCn1c(Sc2cc3c(cc2Br)OCO3)nc2c(N)ncnc21)C1CCCC1 (stereo not shown) [Example 681, {3-[6-Amino-8-(6-bromo-benzo[1,3]dioxol-5-ylsulfanyl)-purin-9-yl]-1-cyclopentyl-propyl}-carbamic acid tert-butyl ester] | 1000
23 | COc1ccc(OC)c(Sc2nc3c(N)ncnc3n2CCc2cccc([N+](=O)[O-])c2)c1 [Example 223, 8-(2,5-Dimethoxy-phenylsulfanyl)-9-[2-(3-nitro-phenyl)-ethyl]-9H-purin-6-ylamine] | 500
24 | COc1ccc(OC)c(Sc2nc3c(N)ncnc3n2CCc2ccc(C)cc2)c1 [Example 23, 8-(2,5-Dimethoxy-phenylsulfanyl)-9-(2-p-tolyl-ethyl)-9H-purin-6-ylamine] | > 10000
25 | CC(=O)N1CCC(CCn2c(Sc3nc4cc(Cl)ccc4s3)nc3c(N)ncnc32)CC1 [Example 656, 9-[2-(1-Acetylpiperidin-4-yl)ethyl]-8-[(5-chloro-1,3-benzothiazol-2-yl)thio]-9H-purin-6-amine] | > 5000
26 | CC(C)(C)OC(=O)N1CCCC[C@@H]1CCn1c(Sc2cc3c(cc2Br)OCO3)nc2c(N)ncnc21 [Example 394, tert-Butyl (2R)-2-(2-{6-amino-8-[(6-bromo-1,3-benzodioxol-5-yl)thio]-9H-purin-9-yl}ethyl)piperidine-1-carboxylate] | 700
27 | Cc1cc(C)c(CCn2c(Sc3cc4c(cc3Br)OCO4)nc3c(N)ncnc32)c(C)c1 [Example 93, 8-(6-Bromo-benzo[1,3]dioxol-5-ylsulfanyl)-9-[2-(2,4,6-trimethyl-phenyl)-ethyl]-9H-purin-6-ylamine] | 190
28 | CCCNC(=N)N1CCC(CCn2c(Sc3cc4c(cc3Br)OCO4)nc3c(N)ncnc32)CC1 [Example 618, 4-(2-{6-Amino-8-[(6-bromo-1,3-benzodioxol-5-yl)thio]-9 H-purin-9-yl}ethyl)-N-propylpiperidine-1-carboximidamide] | 41
29 | COc1cc(CCn2c(Sc3cc4c(cc3Br)OCO4)nc3c(N)ncnc32)cc(OC)c1 [Example 195, 8-(6-Bromo-benzo[1,3]dioxol-5-ylsulfanyl)-9-[2-(3,5-dimethoxy-phenyl)-ethyl]-9H-purin-6-ylamine] | 79
30 | Nc1ncnc2c1nc(Sc1cc3c(cc1Br)OCO3)n2CC(c1ccccc1)C1CCCCC1 (stereo not shown) [Example 226, 8-[(6-Bromo-1,3-benzodioxol-5-yl)thio]-9-(2-cyclohexyl-2-phenylethyl)-9H-purin-6-amine] | > 25000
31 | CC(=O)N1CCC(CCn2c(Sc3cc4c(cc3Br)OCO4)nc3c(N)ncnc32)CC1 [Example 364, 9-[2-(1-Acetylpiperidin-4-yl)ethyl]-8-[(6-bromo-1,3-benzodioxol-5-yl)thio]-9H-purin-6-amine] | 102
32 | Nc1ncnc2c1nc(Sc1cc3c(cc1Br)OCO3)n2CCC1CCOCC1 [Example 353, 8-[(6-Bromo-1,3-benzodioxol-5-yl)thio]-9-[2-(tetrahydro-2H-pyran-4-yl)ethyl]-9H-purin-6-amine] | 57
33 | Nc1ncnc2c1nc(Sc1cc3c(cc1Br)OCO3)n2CCC1CCNCC1 [Example 465, 8-[(6-bromo-1,3-benzodioxol-5-yl)thio]-9-(2-piperidin-4-ylethyl)-9H-purin-6-amine] | 470
34 | Nc1ncnc2c1nc(Sc1cc3c(cc1Br)OCO3)n2CCC1CCN(C(=O)CO)CC1 [Example 760, 2-[4-(2-{6-Amino-8-[(6-bromo-1,3-benzodioxol-5-yl)thio]-9H-purin-9-yl}ethyl)piperidin-1-yl]-2-oxoethanol] | 325
35 | Nc1ncnc2c1nc(Sc1cc3c(cc1Br)OCO3)n2CCC1CCN(CC2CCCCC2)CC1 [Example 581, 8-[(6-Bromo-1,3-benzodioxol-5-yl)thio]-9-{2-[1-(cyclohexylmethyl)piperidin-4-yl]ethyl}-9 H-purin-6-amine] | 240
36 | COc1ccc([N+](=O)[O-])cc1Sc1nc2c(N)ncnc2n1CCc1ccccc1Cl [Example 318, 9-[2-(2-Chlorophenyl)ethyl]-8-[(2-methoxy-5-nitrophenyl)thio]-9H-purin-6-amine] | 7000
37 | Nc1ncnc2c1nc(Sc1cc3c(cc1Br)OCO3)n2CCc1ccccc1 [Example 13, 8-(6-Bromo-benzo[1,3]dioxol-5-ylsulfanyl)-9-phenethyl-9H-purin-6-ylamine] | 45
